Reference: patent publication US7141560B2, “Alanine 2,6-dialkoxyphenyl ester derivatives as hypnotics” (Akzo Nobel N.V., priority 2001, dated 2006)

Each compound was assayed on mice (assay: Hypnotic activity: loss of righting reflex after intravenous injection in mice). Details: Mus musculus, intravenous injection over 10 seconds, dose causing loss of righting reflex for minimum 30 seconds in 50% of treated mice, read-out: HD50 (hypnotic dose50).
Format: in vivo
Method: The hypnotic potency of the alanine 2,6-dialkoxyphenyl ester derivatives of the invention was determined upon their intravenous administration in mice. The dose required to cause a loss of righting reflex for a minimum period of 30 seconds in 50% of treated mice after intravenous injection over 10 seconds was determined. This dose is termed the HD50 (hypnotic dose50) and is expressed in μmol.kg^−1. These in vivo experiments were carried out as described in detail by Anderson et al., J. Med. Chem. 1997, 40, 1668–1681.

| Compound | ED50 [µmol/kg] |
| --- | --- |
| COc1cccc(OC)c1OC(=O)C(CN1CCOCC1)N1CCSCC1 (stereo not shown) [Example 19a, 3-(4-Morpholinyl)-2-(N-thiomorpholinyl)propanoic acid, 2,6-dimethoxyphenyl ester] | 17 |
| COc1cccc(OC)c1OC(=O)C(CN1CCOCC1)N1CCCCC1 (stereo not shown) [Example 19g, 3-(4-Morpholinyl)-2-(1-piperidinyl)propanoic acid, 2,6-dimethoxyphenyl ester] | 15 |
| COc1cccc(OC)c1OC(=O)C(CN1CCSCC1)N1CCOCC1 (stereo not shown) [Example 19i, 2-(4-Morpholinyl)-3-(N-thiomorpholinyl)propanoic acid, 2,6-dimethoxyphenyl ester] | 19 |
| COc1cccc(OC)c1OC(=O)C(CCN1CCOCC1)N1CCOCC1 (stereo not shown) [Example 21a, 2,4-Di-(4-morpholinyl)butanoic acid, 2,6-dimethoxyphenyl ester] | 50 |

Same assay, conditions: intravenous injection over 10 seconds, dose causing loss of righting reflex for minimum 30 seconds in 50% of treated mice

| Compound | HD50 (hypnotic dose50) [µmol/kg] |
| --- | --- |
| COc1cccc(OC)c1OC(=O)C(CN1CCOCC1)N1CCc2ccccc2C1 (stereo not shown) [Example 19b, 3-(4-Morpholinyl)-2-(1,2,3,4-tetrahydroisoquinoline)propanoic acid, 2,6-dimethoxyphenyl ester] | 29 |
| COc1cccc(OC)c1OC(=O)C(CN1CCOCC1)N1CCSC(C)(C)C1 (stereo not shown) [Example 19c, 2-[N-(2,2-Dimethylthiomorpholinyl)]-3-(4-morpholinyl)propanoic acid, 2,6-dimethoxyphenyl ester] | 28 |
| COc1cccc(OC)c1OC(=O)C(CN1CCOCC1)N1CCO[C@H](C)C1 (stereo partly drawn) [Example 19d, 2-[(R)-4-(2-Methylmorpholinyl)]-3-(4-morpholinyl)propanoic acid, 2,6-dimethoxyphenyl ester] | 27 |
| CC[C@@H]1CN(C(CN2CCOCC2)C(=O)Oc2c(OC)cccc2OC)CCO1 (stereo partly drawn) [Example 19e, 2-[(R)-4-(2-Ethylmorpholinyl)]-3-(4-morpholinyl)propanoic acid, 2,6-dimethoxyphenyl ester] | 27 |
| CCC1(C)CN(C(CN2CCOCC2)C(=O)Oc2c(OC)cccc2OC)CCO1 (stereo not shown) [Example 19f, 2-[4-(2-Ethyl-2-methylmorpholinyl)]-3-(4-morpholinyl)propanoic acid, 2,6-dimethoxyphenyl ester] | 21 |
| COc1cccc(OC)c1OC(=O)C(CN1CCOCC1)N1CCOC[C@H]1C(C)C (stereo partly shown) [Example 19h] | 21 |
| COc1cccc(OC)c1OC(=O)C(CN1CCc2ccccc2C1)N1CCOCC1 (stereo not shown) [Example 19j, 2-(4-Morpholinyl)-3-(1,2,3,4-tetrahydroisoquinoline)propanoic acid, 2,6-dimethoxyphenyl ester] | 21 |
| COc1cccc(OC)c1OC(=O)C(CN1CC=CCC1)N1CCSCC1 (stereo not shown) [Example 19k, 3-(1,2,3,6-Tetrahydropyridinyl)-2-(N-thiomorpholinyl)propanoic acid, 2,6-dimethoxyphenyl ester] | 15 |
| CCOc1cccc(OCC)c1OC(=O)C(CN1CCOCC1)N1CCOCC1 (stereo not shown) [Example 20b, Propanoic acid, 2,3-di(4-morpholinyl), 2,6-diethoxyphenyl ester] | 24 |
| COc1cccc(OC)c1OC(=O)C(CCN1CCOC(C)(C)C1)N1CCOC(C)(C)C1 (stereo not shown) [Example 21b] | 25 |
| COCCN(CCOC)C(CC(=O)OC)C(=O)Oc1c(OC)cccc1OC (stereo not shown) [Example 24a, Butanedioic, 2-[N-bis(2-methoxyethyl)amino]-, 1-(2,6-dimethoxyphenyl)ester, 4-methyl ester] | 48 |
| COCCN(CCOC)C(CC(=O)OC)C(=O)Oc1c(OC)cc(C)cc1OC (stereo not shown) [Example 24b, Butanedioic, 2-[N-bis(2-methoxyethyl)amino]-, 1-(2,6-dimethoxy-4-methylphenyl)ester, 4-methyl ester] | 48 |
| COC(=O)CC(C(=O)Oc1c(OC)cc(C)cc1OC)N1CCOCC1 (stereo not shown) [Example 26b, Butanedioic, 2-(4-morpholinyl)-, 1-(2,6-dimethoxy-4-methylphenyl)ester, 4-methyl ester] | 46 |
| COC(=O)CC(C(=O)Oc1c(OC)cccc1OC)N1CCCCC1 (stereo not shown) [Example 28a, Butanedioic, 2-(1-piperidinyl)-, 1-(2,6-dimethoxyphenyl)ester, 4-methyl ester] | 26 |
| COC(=O)CC(C(=O)Oc1c(OC)cc(C)cc1OC)N1CCCCC1 (stereo not shown) [Example 28b, Butanedioic, 2-(1-piperidinyl)-, 1-(2,6-dimethoxy-4-methylphenyl)ester, 4-methyl ester] | 48 |
| COC(=O)CC(C(=O)Oc1c(OC)cccc1OC)N1CCCCCC1 (stereo not shown) [Example 30a, Butanedioic, 2-(1-hexahydroazepinyl)-, 1-(2,6-dimethoxyphenyl)ester, 4-methyl ester] | 23 |
| COC(=O)CC(C(=O)Oc1c(OC)cc(C)cc1OC)N1CCCCCC1 (stereo not shown) [Example 30b, Butanedioic, 2-(1-hexahydroazepinyl)-, 1-(2,6-dimethoxy-4-methyl-phenyl)ester, 4-methyl ester] | 26 |

| Compound | HD50 (hypnotic dose50) [µmol/kg] |
| --- | --- |
| CCN(CC)C(=O)CC(C(=O)Oc1c(OC)cc(C)cc1OC)N1CCOCC1 (stereo not shown) [Example 32a, Butanedioic, 4-(diethylamino)-4-oxo-, 2-(4-morpholinyl)-, 1-(2,6-dimethoxy4-methylphenyl)ester] | 38 |
| COc1cc(C)cc(OC)c1OC(=O)C(CC(=O)N1CCCCC1)N1CCCCC1 (stereo not shown) [Example 34a, Butanedioic, 4-(1-piperidinyl)-4-oxo-, 2-(1-piperidinyl)-, 1-(2,6-dimethoxy-4-methylphenyl)ester] | 38 |
| COc1cccc(OC)c1OC(=O)C(CC(=O)N1CCCCC1)N1CCCCC1 (stereo not shown) [Example 34b, Butanedioic, 4-(1-piperidinyl)-4-oxo-, 2-(1-piperidinyl)-1-(2,6-dimethoxyphenyl)ester] | 39 |
| COc1cccc(OC)c1OC(=O)C(CC(=O)N1CCCC1)N1CCCCCC1 (stereo not shown) [Example 36, Butanedioic, 2-(1-hexahydroazepinyl)-4-oxo-4-(1-pyrrolidinyl)-, 1-(2,6-dimethoxyphenyl)ester] | 34 |
| COc1cc(C)cc(OC)c1OC(=O)C(CCSC)N1CCOCC1 (stereo not shown) [Example 39a, Butanoic acid, 4-(methylthio)-2-(4-morpholinyl)-, 1-(2,6-dimethoxy-4-methylphenyl)ester] | 35 |
| COc1cc(C)cc(OC)c1OC(=O)C(CCSC)N1CCCC1 (stereo not shown) [Example 39b, Butanoic acid, 4-(methylthio)-2-(1-pyrrolidinyl)-, 1-(2,6-dimethoxy-4-methylphenyl)ester] | 31 |
| COCCN(CCOC)C(CCSC)C(=O)Oc1c(OC)cc(C)cc1OC (stereo not shown) [Example 39c, Butanoic acid, 2-[N-bis(2-methoxyethyl)amino]-4-(methylthio), 1-(2,6-dimethoxy-4-methylphenyl)ester] | 23 |
| COc1cccc(OC)c1OC(=O)C(CCSC)N1CCCCC1 (stereo not shown) [Example 40a, Butanoic acid, 4-(methylthio)-2-(1-piperidinyl)-, 1-(2,6-dimethoxyphenyl)ester] | <26 |
| COc1cccc(OC)c1OC(=O)C(CCSC)N1CCCC1 (stereo not shown) [Example 40b, Butanoic acid, 4-(methylthio)-2-(1-pyrrolidinyl)-, 1-(2,6-dimethoxyphenyl)ester] | 40 |
| COc1cccc(OC)c1OC(=O)C(CCSC)N1CCCCCC1 (stereo not shown) [Example 40c, Butanoic acid, 2-(1-hexahydroazepinyl)-4-(methylthio), 1-(2,6-dimethoxyphenyl)ester] | 18 |
| COc1cccc(OC)c1OC(=O)C(CCSC)N1CCCCCCC1 (stereo not shown) [Example 40d, Butanoic acid, 2-(1-hexahydroazocinyl)-4-(methylthio), 1-(2,6-dimethoxyphenyl)ester] | 35 |
| COc1cc(C)cc(OC)c1OC(=O)C(CCS(C)(=O)=O)N1CC=CCC1 (stereo not shown) [Example 43, Butanoic acid, 4-(methylsulphonyl)-2-(1-[1,2,3,6-tetrahydropyridinyl])-, 1-(2,6-dimethoxy-4-methylphenyl)ester] | 39 |
| COC(=O)CCC(C(=O)Oc1c(OC)cccc1OC)N1CCCCC1.Cl (stereo not shown) [Example 47a, Pentanedioic acid, 2-(1-piperidinyl)-, 1-(2,6-dimethoxyphenyl)ester, 5-methyl ester hydrochloride (1:1) salt] | 50 |
| COC(=O)CCC(C(=O)Oc1c(OC)cccc1OC)N1CCCCCC1.Cl (stereo not shown) [Example 47b, Pentanedioic acid, 2-(1-hexahydroazepinyl)-, 1-(2,6-dimethoxyphenyl)ester, 5-methyl ester hydrochloride (1:1) salt] | 36 |
| COC(=O)CCC(C(=O)Oc1c(OC)cccc1OC)N1CCSCC1.Cl (stereo not shown) [Example 47c, Pentanedioic acid, 2-(N-thiomorpholinyl)-, 1-(2,6-dimethoxyphenyl)ester, 5-methyl ester hydrochloride (1:1) salt] | 44 |
| COCCN(CCOC)C(CCC(=O)OC)C(=O)Oc1c(OC)cccc1OC.Cl (stereo not shown) [Example 48, Pentanedioic acid, 2-[bis-(2-methoxyethyl)amino]-, 1-(2,6-dimethoxyphenyl)ester, 5-methyl ester hydrochloride (1:1) salt] | 37 |
